Data: ChEMBL document CHEMBL1147146, “Cells lacking DNA topoisomerase II beta are resistant to genistein” (J Nat Prod, 2007)
Calls of active or inactive are those of the source. The calls are words filed in the database; no cut-off is given here.

Experiments:
[1] = target: T1, DNA topoisomerase 1 (Homo sapiens) (UniProt P11387); conditions: K562
T1 sequence (whole entry): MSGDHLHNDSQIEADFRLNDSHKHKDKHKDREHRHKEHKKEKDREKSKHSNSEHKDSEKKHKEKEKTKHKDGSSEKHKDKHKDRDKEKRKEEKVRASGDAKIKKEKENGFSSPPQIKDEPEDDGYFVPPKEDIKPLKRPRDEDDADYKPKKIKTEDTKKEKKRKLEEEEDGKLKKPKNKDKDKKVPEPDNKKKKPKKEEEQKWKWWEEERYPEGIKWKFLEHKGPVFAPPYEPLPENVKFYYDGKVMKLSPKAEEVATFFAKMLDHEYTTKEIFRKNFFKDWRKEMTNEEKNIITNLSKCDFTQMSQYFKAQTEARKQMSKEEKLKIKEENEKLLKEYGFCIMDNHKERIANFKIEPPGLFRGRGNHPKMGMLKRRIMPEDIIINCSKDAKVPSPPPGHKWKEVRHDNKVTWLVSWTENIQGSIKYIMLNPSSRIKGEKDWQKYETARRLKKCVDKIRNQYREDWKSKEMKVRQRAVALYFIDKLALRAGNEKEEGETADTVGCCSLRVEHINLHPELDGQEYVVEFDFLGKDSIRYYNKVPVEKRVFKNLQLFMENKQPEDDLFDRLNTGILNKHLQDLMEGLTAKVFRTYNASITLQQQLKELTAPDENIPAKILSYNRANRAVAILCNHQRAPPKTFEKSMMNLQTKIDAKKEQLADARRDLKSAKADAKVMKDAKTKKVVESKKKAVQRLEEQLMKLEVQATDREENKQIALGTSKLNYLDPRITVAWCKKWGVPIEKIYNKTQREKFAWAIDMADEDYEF
Description: Induction of topoisomerase 1-DNA complexes in K562 cells assessed as integrated green fluorescence at 10 times their IC50 after 24 hrs by TARDIS assay

[2] = target: T1, DNA topoisomerase 1 (Homo sapiens); conditions: K562, 10 uM
Description: Induction of topoisomerase 1-DNA complexes in K562 cells assessed as integrated green fluorescence at 10 uM after 1 hr by TARDIS assay

[3] = target: T1, DNA topoisomerase 1 (Homo sapiens); conditions: K562; remark: listed apart in the source
Description: Induction of topoisomerase 1-DNA complexes in K562 cells assessed as integrated green fluorescence at 10 times their IC50 after 2 hrs by TARDIS assay

[4] = target: T1, DNA topoisomerase 1 (Homo sapiens); conditions: K562; remark: listed apart in the source
Description: Induction of topoisomerase 1-DNA complexes in K562 cells assessed as integrated green fluorescence at 10 times their IC50 after 8 hrs by TARDIS assay

[5] = target: DNA topoisomerase 2-alpha (Homo sapiens) (UniProt P11388); conditions: K562
Chain of DNA topoisomerase 2-alpha (Homo sapiens) (P11388 whole entry): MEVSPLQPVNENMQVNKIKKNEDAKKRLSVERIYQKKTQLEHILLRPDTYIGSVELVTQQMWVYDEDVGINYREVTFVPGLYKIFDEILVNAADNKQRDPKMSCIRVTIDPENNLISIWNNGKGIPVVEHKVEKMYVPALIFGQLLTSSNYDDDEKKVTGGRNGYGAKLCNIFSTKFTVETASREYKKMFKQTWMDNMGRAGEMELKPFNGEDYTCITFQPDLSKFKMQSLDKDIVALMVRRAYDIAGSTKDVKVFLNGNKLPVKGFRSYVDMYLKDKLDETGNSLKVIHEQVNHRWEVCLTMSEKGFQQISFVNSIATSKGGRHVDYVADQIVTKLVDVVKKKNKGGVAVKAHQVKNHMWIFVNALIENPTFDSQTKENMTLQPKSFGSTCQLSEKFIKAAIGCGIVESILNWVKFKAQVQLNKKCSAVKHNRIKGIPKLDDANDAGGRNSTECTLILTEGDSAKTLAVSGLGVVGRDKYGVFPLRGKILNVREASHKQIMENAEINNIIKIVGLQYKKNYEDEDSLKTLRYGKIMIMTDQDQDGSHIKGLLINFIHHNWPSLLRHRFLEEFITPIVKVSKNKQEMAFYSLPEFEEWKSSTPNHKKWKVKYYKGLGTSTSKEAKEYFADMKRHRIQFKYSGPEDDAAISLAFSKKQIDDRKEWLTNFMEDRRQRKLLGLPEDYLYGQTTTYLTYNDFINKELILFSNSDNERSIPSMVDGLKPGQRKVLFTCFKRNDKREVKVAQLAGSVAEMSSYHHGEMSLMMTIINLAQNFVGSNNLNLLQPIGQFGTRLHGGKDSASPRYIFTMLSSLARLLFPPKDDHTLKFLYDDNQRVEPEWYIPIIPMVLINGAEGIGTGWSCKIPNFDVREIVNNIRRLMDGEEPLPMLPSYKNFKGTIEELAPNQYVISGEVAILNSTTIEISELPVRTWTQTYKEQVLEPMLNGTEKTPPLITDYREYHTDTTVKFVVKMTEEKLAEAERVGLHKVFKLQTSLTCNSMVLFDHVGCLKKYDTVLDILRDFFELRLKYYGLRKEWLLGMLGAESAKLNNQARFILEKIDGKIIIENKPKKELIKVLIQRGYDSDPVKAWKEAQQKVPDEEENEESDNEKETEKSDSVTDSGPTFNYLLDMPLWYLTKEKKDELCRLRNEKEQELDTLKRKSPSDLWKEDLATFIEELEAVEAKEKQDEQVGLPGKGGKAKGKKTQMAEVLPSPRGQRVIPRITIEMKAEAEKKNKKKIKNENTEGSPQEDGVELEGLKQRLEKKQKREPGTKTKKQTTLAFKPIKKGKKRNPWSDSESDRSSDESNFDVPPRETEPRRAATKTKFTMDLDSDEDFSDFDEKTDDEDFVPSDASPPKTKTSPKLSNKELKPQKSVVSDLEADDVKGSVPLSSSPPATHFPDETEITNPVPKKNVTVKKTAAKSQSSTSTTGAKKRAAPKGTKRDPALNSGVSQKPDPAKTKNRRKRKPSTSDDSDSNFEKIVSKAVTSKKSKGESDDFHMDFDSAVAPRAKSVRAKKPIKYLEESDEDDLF
Description: Induction of human recombinant topoisomerase 2-DNA complexes in K562 cells assessed as integrated green fluorescence at 10 times their IC50 after 8 hrs by TARDIS assay

[6] = target: DNA topoisomerase 2-alpha (Homo sapiens) (UniProt P11388); conditions: K562; remark: listed apart in the source
Description: Induction of human recombinant topoisomerase 2-DNA complexes in K562 cells assessed as integrated green fluorescence at 10 times their IC50 after 2 hrs by TARDIS assay

[7] = target: DNA topoisomerase 2-alpha (Homo sapiens) (UniProt P11388); conditions: K562, 10 uM
Description: Induction of human recombinant topoisomerase 2-DNA complexes in K562 cells assessed as integrated green fluorescence at 10 uM after 2 hrs by TARDIS assay

[8] = target: DNA topoisomerase 2-beta (Homo sapiens) (UniProt Q02880); experiment: Induction of human recombinant topoisomerase 2beta-DNA complex in K562 cells assessed as integrated fluorescence at 10 uM after 2 hrs by TARDIS assay; type: cell-based
Chain of DNA topoisomerase 2-beta (Homo sapiens) (Q02880 whole entry): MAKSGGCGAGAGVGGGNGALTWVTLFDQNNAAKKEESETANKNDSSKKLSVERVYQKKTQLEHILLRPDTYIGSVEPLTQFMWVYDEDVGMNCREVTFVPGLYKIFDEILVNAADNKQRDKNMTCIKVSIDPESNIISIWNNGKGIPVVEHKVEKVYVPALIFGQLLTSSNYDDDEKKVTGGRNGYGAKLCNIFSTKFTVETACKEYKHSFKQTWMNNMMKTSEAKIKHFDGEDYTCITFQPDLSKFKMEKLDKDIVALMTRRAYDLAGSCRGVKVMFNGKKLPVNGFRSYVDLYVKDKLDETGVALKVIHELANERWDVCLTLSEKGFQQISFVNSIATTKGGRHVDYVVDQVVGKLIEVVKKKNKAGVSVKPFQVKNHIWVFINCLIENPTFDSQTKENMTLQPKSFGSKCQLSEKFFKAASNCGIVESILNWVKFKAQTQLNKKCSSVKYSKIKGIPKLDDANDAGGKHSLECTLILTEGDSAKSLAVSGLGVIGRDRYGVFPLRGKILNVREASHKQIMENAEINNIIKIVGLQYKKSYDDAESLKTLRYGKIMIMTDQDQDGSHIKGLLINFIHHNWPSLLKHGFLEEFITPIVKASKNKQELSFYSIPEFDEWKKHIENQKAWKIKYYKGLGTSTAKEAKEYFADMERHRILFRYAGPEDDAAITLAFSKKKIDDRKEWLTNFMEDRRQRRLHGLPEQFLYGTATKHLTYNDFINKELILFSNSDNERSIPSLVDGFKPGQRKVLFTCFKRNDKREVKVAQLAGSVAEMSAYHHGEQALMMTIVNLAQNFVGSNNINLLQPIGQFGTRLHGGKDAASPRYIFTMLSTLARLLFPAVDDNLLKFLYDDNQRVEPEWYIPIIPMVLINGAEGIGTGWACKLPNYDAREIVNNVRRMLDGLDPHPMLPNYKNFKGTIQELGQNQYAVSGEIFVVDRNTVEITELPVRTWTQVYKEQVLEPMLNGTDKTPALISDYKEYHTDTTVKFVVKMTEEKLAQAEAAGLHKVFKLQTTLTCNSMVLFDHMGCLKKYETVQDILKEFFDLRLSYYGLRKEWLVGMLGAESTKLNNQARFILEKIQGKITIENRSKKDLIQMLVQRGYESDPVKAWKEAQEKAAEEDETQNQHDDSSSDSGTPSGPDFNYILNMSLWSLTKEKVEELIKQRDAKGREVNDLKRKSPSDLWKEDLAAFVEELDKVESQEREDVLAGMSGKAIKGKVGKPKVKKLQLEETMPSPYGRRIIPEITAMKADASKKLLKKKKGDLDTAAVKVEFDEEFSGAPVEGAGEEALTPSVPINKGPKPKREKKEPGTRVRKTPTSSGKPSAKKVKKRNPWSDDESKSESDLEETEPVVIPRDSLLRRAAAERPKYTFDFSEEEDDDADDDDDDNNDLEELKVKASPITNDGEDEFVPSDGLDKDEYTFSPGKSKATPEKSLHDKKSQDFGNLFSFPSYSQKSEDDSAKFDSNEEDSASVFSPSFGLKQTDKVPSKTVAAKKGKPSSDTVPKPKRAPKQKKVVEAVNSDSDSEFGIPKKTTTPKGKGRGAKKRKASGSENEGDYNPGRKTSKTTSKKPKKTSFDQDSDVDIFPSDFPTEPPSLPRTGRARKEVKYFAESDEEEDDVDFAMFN

[9] = target: DNA topoisomerase 2-alpha (Homo sapiens) (UniProt P11388); conditions: K562; remark: listed apart in the source
Description: Induction of human recombinant topoisomerase 2-DNA complexes in K562 cells assessed as integrated green fluorescence at 10 times their IC50 after 24 hrs by TARDIS assay

[10] = target: T1, DNA topoisomerase 1 (Homo sapiens); experiment: Inhibition of topoisomerase 1 assessed as reduction of camptothecin-induced topo 1-DNA complexes in K562 cells by measuring integrated fluorescence at 175 uM after 24 hrs by TARDIS assay; type: cell-based
[11] = target: DNA topoisomerase 2-alpha (Homo sapiens) (UniProt P11388); experiment: Inhibition of human recombinant topoisomerase 2 assessed as reduction of etoposide-induced topo 2-DNA complexes in K562 cells by measuring integrated fluorescence at 175 uM after 24 hrs by TARDIS assay; type: cell-based
[12] = target: DNA topoisomerase 2-beta (Homo sapiens) (UniProt Q02880); experiment: Induction of human recombinant topoisomerase 2beta-DNA complex in K562 cells assessed as integrated fluorescence at 175 uM after 2 hrs by TARDIS assay; type: cell-based
[13] = Growth inhibition of mouse wild-type topoisomerase 2-beta +/+ cells after 4 hrs by colonogenic assay; type: functional
[14] = target: DNA topoisomerase 2-alpha (Homo sapiens) (UniProt P11388); experiment: Induction of human recombinant topoisomerase 2-DNA complexes in K562 cells assessed as integrated green fluorescence at 175 uM after 24 hrs by TARDIS assay; type: cell-based
[15] = target: DNA topoisomerase 2-alpha (Homo sapiens) (UniProt P11388); experiment: Induction of human recombinant topoisomerase 2-DNA complexes in K562 cells assessed as integrated green fluorescence at 175 uM after 2 hrs by TARDIS assay; type: cell-based
[16] = target: DNA topoisomerase 2-alpha (Homo sapiens) (UniProt P11388); experiment: Induction of human recombinant topoisomerase 2-DNA complexes in K562 cells assessed as integrated green fluorescence at 175 uM after 6 hrs by TARDIS assay; type: cell-based
[17] = Survival of mouse topoisomerase 2-beta -/- cells at 100 uM after 4 hrs by colonogenic assay; type: functional
[18] = target: T1, DNA topoisomerase 1 (Homo sapiens); experiment: Induction of topoisomerase 1-DNA complexes in K562 cells assessed as integrated green fluorescence at 175 uM after 24 hrs by TARDIS assay; type: cell-based
[19] = Survival of mouse wild-type topoisomerase 2beta +/+cells at 100 uM after 4 hrs by colonogenic assay; type: functional
[20] = target: T1, DNA topoisomerase 1 (Homo sapiens); experiment: Inhibition of topoisomerase 1 assessed as reduction of camptothecin-induced topo 1-DNA complexes in K562 cells by measuring integrated fluorescence at 17 uM after 24 hrs by TARDIS assay; type: cell-based
K562 = experiment: Growth inhibition of K562 cells by XTT assay after 5 days; type: functional, cell-based; conditions: Homo sapiens, K562, 120 h
[21] = target: T1, DNA topoisomerase 1 (Homo sapiens); experiment: Induction of topoisomerase 1-DNA complexes in K562 cells assessed as integrated green fluorescence at 175 uM after 2 hrs by TARDIS assay; type: cell-based
[22] = target: DNA topoisomerase 2-alpha (Homo sapiens) (UniProt P11388); experiment: Induction of human recombinant topoisomerase 2-DNA complexes in K562 cells assessed as integrated green fluorescence at 175 uM after 0.5 hrs by TARDIS assay; type: cell-based
Mus musculus [23] = species on record: Mus musculus; experiment: Growth inhibition of mouse topoisomerase 2-beta -/- cells at 100 to 300 uM after 4 hrs by XTT assay; type: functional
[24] = Growth inhibition of mouse knock out topoisomerase 2-beta -/- cells after 4 hrs by colonogenic assay; type: functional
[25] = target: DNA topoisomerase 2-alpha (Homo sapiens) (UniProt P11388); experiment: Inhibition of human recombinant topoisomerase 2 assessed as reduction of etoposide-induced topo 2-DNA complexes in K562 cells by measuring integrated fluorescence at 17 uM after 24 hrs by TARDIS assay; type: cell-based
Mus musculus [26] = species on record: Mus musculus; experiment: Growth inhibition of mouse topoisomerase 2-beta +/+ cells at 100 to 300 uM after 4 hrs by XTT assay; type: functional
[27] = target: T1, DNA topoisomerase 1 (Homo sapiens); experiment: Induction of topoisomerase 1-DNA complexes in K562 cells assessed as integrated green fluorescence at 175 uM after 0.5 hrs by TARDIS assay; type: cell-based
[28] = Growth inhibition of mouse topoisomerase 2-beta -/- cells at 300 uM after 4 hrs by colonogenic assay; type: functional; set-up: scale not given: the % may be the effect or the level left
[29] = target: T1, DNA topoisomerase 1 (Homo sapiens); experiment: Induction of topoisomerase 1-DNA complexes in K562 cells assessed as integrated green fluorescence at 175 uM after 6 hrs by TARDIS assay; type: cell-based
[30] = target: DNA topoisomerase 2-alpha (Homo sapiens) (UniProt P11388); experiment: Induction of human recombinant topoisomerase 2-DNA complexes in K562 cells assessed as integrated green fluorescence at 146 uM after 6 hrs by TARDIS assay; type: cell-based
[31] = target: T1, DNA topoisomerase 1 (Homo sapiens); experiment: Inhibition of topoisomerase 1 assessed as reduction of camptothecin-induced topo 1-DNA complexes in K562 cells by measuring integrated fluorescence at 14 uM after 24 hrs by TARDIS assay; type: cell-based
[32] = target: T1, DNA topoisomerase 1 (Homo sapiens); experiment: Inhibition of topoisomerase 1 assessed as reduction of camptothecin-induced topo 1-DNA complexes in K562 cells by measuring integrated fluorescence at 146 uM after 24 hrs by TARDIS assay; type: cell-based
[33] = target: DNA topoisomerase 2-alpha (Homo sapiens) (UniProt P11388); experiment: Induction of human recombinant topoisomerase 2-DNA complexes in K562 cells assessed as integrated green fluorescence at 146 uM after 24 hrs by TARDIS assay; type: cell-based
[34] = target: DNA topoisomerase 2-alpha (Homo sapiens) (UniProt P11388); experiment: Induction of human recombinant topoisomerase 2-DNA complexes in K562 cells assessed as integrated green fluorescence at 146 uM after 2 hrs by TARDIS assay; type: cell-based
[35] = target: DNA topoisomerase 2-alpha (Homo sapiens) (UniProt P11388); experiment: Inhibition of human recombinant topoisomerase 2 assessed as reduction of etoposide-induced topo 2-DNA complexes in K562 cells by measuring integrated fluorescence at 146 uM after 24 hrs by TARDIS assay; type: cell-based
[36] = target: T1, DNA topoisomerase 1 (Homo sapiens); experiment: Induction of topoisomerase 1-DNA complexes in K562 cells assessed as integrated green fluorescence at 146 uM after 6 hrs by TARDIS assay; type: cell-based
[37] = target: T1, DNA topoisomerase 1 (Homo sapiens); experiment: Induction of topoisomerase 1-DNA complexes in K562 cells assessed as integrated green fluorescence at 146 uM after 2 hrs by TARDIS assay; type: cell-based
[38] = target: DNA topoisomerase 2-alpha (Homo sapiens) (UniProt P11388); experiment: Induction of human recombinant topoisomerase 2-DNA complexes in K562 cells assessed as integrated green fluorescence at 146 uM after 0.5 hrs by TARDIS assay; type: cell-based
[39] = target: T1, DNA topoisomerase 1 (Homo sapiens); experiment: Induction of topoisomerase 1-DNA complexes in K562 cells assessed as integrated green fluorescence at 146 uM after 24 hrs by TARDIS assay; type: cell-based
[40] = target: T1, DNA topoisomerase 1 (Homo sapiens); experiment: Induction of topoisomerase 1-DNA complexes in K562 cells assessed as integrated green fluorescence at 146 uM after 0.5 hrs by TARDIS assay; type: cell-based
[41] = target: DNA topoisomerase 2-alpha (Homo sapiens) (UniProt P11388); experiment: Inhibition of human recombinant topoisomerase 2 assessed as reduction of etoposide-induced topo 2-DNA complexes in K562 cells by measuring integrated fluorescence at 14 uM after 24 hrs by TARDIS assay; type: cell-based

`CC[C@@]1(O)C(=O)OCc2c1cc1n(c2=O)Cc2cc3ccccc3nc2-1` gave a Fluorescence intensity [1] of 1.04, a Fluorescence intensity [2] of 11.4 and a Fluorescence intensity [3] of 2.51. For the same molecule, the Fluorescence intensity [4] was 1.58.
With `COc1cc([C@@H]2c3cc4c(cc3[C@@H](O[C@@H]3O[C@@H]5CO[C@@H](C)O[C@H]5[C@H](O)[C@H]3O)[C@H]3COC(=O)[C@H]23)OCO4)cc(OC)c1O` the Fluorescence intensity [5] was 20.9, the Fluorescence intensity [6] was 13.2 and the Fluorescence intensity [7] was 49.4. For the same molecule, the Fluorescence intensity [8] was 3940 and the Fluorescence intensity [9] was 23.4.
`O=c1c(-c2ccc(O)cc2)coc2cc(O)cc(O)c12` [GENISTEIN] gave a Fluorescence intensity [10] of 148%, a Fluorescence intensity [11] of 67% and a Fluorescence intensity [12] of 12700. It also gave an IC50 [13] of 47 µM, a Fluorescence intensity [14] of 12.6 and a Fluorescence intensity [15] of 20.4. The Fluorescence intensity [16] was 7.03, the Activity [17] was 50% and the Fluorescence intensity [18] was 0.18. It also gave an Activity [19] of 0%, a Fluorescence intensity [20] of 112% and an IC50 (K562) of 17.6 µM. The Fluorescence intensity [21] was 0.44, the Fluorescence intensity [22] was 7.03 and the Activity (Mus musculus [23]) was “inactive”. For the same molecule, the IC50 [24] was 300 µM, the Fluorescence intensity [25] was 95% and the Activity (Mus musculus [26]) was “Active”. The Fluorescence intensity [27] was 0.96, the Activity [28] was 50% and the Fluorescence intensity [29] was 0.44.
`O=c1cc(-c2ccc(O)c(O)c2)oc2cc(O)cc(O)c12` [LUTEOLIN] showed a Fluorescence intensity [30] of 7.39, a Fluorescence intensity [31] of 99% and a Fluorescence intensity [32] of 52%. It also gave a Fluorescence intensity [33] of 5.05, an Activity [34] of 4.08 and a Fluorescence intensity [35] of 85%. It also gave an IC50 (K562) of 14.7 µM, a Fluorescence intensity [36] of 0.51 and an Activity [37] of 0.28. The Fluorescence intensity [38] was 3.17, the Fluorescence intensity [39] was 0.19 and the Fluorescence intensity [40] was 0.49. For the same molecule, the Fluorescence intensity [41] was 133%.
